Results reported in the supplement of paper PMC10307832.

Experiments:
Test in all cases: relative viability (nuclei count vs DMSO), 5 days (fraction); higher = more cells survive
Tipifarnib + Phenformin = compound: Cn1cncc1[C@@](N)(c1ccc(Cl)cc1)c1ccc2c(c1)c(-c1cccc(Cl)c1)cc(=O)n2C [Tipifarnib] + N=C(N)NC(=N)NCCc1ccccc1 [Phenformin] (partner 250 µM)
Outline: (§1)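 Cells from lung cancer lines were seeded into 1536-well plates and, one day later, dosed by pin tool. Treatments were either a single drug or a fixed dose of an anchor drug with five library-drug doses (not always all listed) in √10 steps. After 5 days, nuclei were stained in a one-step fixation (final 0.05% Triton X-100, 1% formaldehyde, 1 ug/ml Hoechst) and counted on 4× images, and relative viability is the treated-to-vehicle nuclei ratio, as the median of duplicate plates.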

Tipifarnib + Pictilisib = compound: Cn1cncc1[C@@](N)(c1ccc(Cl)cc1)c1ccc2c(c1)c(-c1cccc(Cl)c1)cc(=O)n2C [Tipifarnib] + CS(=O)(=O)N1CCN(Cc2cc3nc(-c4cccc5[nH]ncc45)nc(N4CCOCC4)c3s2)CC1 [Pictilisib] (partner 1 µM)
Outline: as §1

Tipifarnib + Decitabine = compound: Cn1cncc1[C@@](N)(c1ccc(Cl)cc1)c1ccc2c(c1)c(-c1cccc(Cl)c1)cc(=O)n2C [Tipifarnib] + Nc1ncn([C@H]2C[C@H](O)[C@@H](CO)O2)c(=O)n1 [Decitabine] (partner 2 µM)
Outline: as §1

Tipifarnib + Palbociclib = compound: Cn1cncc1[C@@](N)(c1ccc(Cl)cc1)c1ccc2c(c1)c(-c1cccc(Cl)c1)cc(=O)n2C [Tipifarnib] + CC(=O)c1c(C)c2cnc(Nc3ccc(N4CCNCC4)cn3)nc2n(C2CCCC2)c1=O [Palbociclib] (partner 0.5 µM)
Outline: as §1

| Cell Line | relative viability (Tipifarnib + Phenformin; first compound 0.01 µM) | relative viability (Tipifarnib + Phenformin; first compound 0.03162 µM) | relative viability (Tipifarnib + Phenformin; first compound 0.1 µM) | relative viability (Tipifarnib + Phenformin; first compound 0.3162 µM) | relative viability (Tipifarnib + Phenformin; first compound 1 µM) | relative viability (Tipifarnib + Pictilisib; first compound 0.01 µM) | relative viability (Tipifarnib + Pictilisib; first compound 0.03162 µM) | relative viability (Tipifarnib + Pictilisib; first compound 0.1 µM) | relative viability (Tipifarnib + Pictilisib; first compound 0.3162 µM) | relative viability (Tipifarnib + Pictilisib; first compound 1 µM) | relative viability (Tipifarnib + Decitabine; first compound 0.01 µM) | relative viability (Tipifarnib + Decitabine; first compound 0.03162 µM) | relative viability (Tipifarnib + Decitabine; first compound 0.1 µM) | relative viability (Tipifarnib + Decitabine; first compound 0.3162 µM) | relative viability (Tipifarnib + Decitabine; first compound 1 µM) | relative viability (Tipifarnib + Palbociclib; first compound 0.01 µM) | relative viability (Tipifarnib + Palbociclib; first compound 0.03162 µM) | relative viability (Tipifarnib + Palbociclib; first compound 0.1 µM) | relative viability (Tipifarnib + Palbociclib; first compound 0.3162 µM) | relative viability (Tipifarnib + Palbociclib; first compound 1 µM) |
| --- | --- | --- | --- | --- | --- | --- | --- | --- | --- | --- | --- | --- | --- | --- | --- | --- | --- | --- | --- | --- |
| SK-MES-1 | 0.659 | 0.663 | 0.651 | 0.619 | 0.57 | 0.349 | 0.401 | 0.395 | 0.247 | 0.239 | 0.465 | 0.336 | 0.35 | 0.421 | 0.33 | 0.337 | 0.3 | 0.304 | 0.245 | 0.3 |
| NCI-H1666 | 0.526 | 0.502 | 0.552 | 0.471 | 0.575 | 0.464 | 0.393 | 0.419 | 0.332 | 0.367 | 0.698 | 0.739 | 0.768 | 0.598 | 0.571 | 0.684 | 0.676 | 0.695 | 0.626 | 0.663 |
| NCI-H1355 | 0.427 | 0.44 | 0.429 | 0.403 | 0.344 | 0.439 | 0.401 | 0.356 | 0.301 | 0.293 | 0.372 | 0.397 | 0.328 | 0.317 | 0.321 | 0.399 | 0.398 | 0.351 | 0.325 | 0.322 |
| HCC-827 | 0.425 | 0.413 | 0.406 | 0.34 | 0.376 | 0.955 | 0.905 | 0.775 | 0.653 | 0.675 | 0.324 | 0.333 | 0.293 | 0.293 | 0.259 | 0.455 | 0.495 | 0.472 | 0.349 | 0.439 |
| HARA | 0.52 | 0.494 | 0.501 | 0.412 | 0.156 | 0.403 | 0.373 | 0.313 | 0.362 | 0.148 | 0.758 | 0.593 | 0.515 | 0.625 | 0.435 | 0.32 | 0.32 | 0.238 | 0.217 | 0.265 |
| HCC-366 | 0.619 | 0.569 | 0.387 | 0.313 | 0.0592 | 0.145 | 0.133 | 0.0968 | 0.0769 | 0.0755 | 0.345 | 0.337 | 0.19 | 0.174 | 0.16 | 0.259 | 0.346 | 0.199 | 0.179 | 0.101 |
| NCI-H322M | 0.868 | 0.749 | 0.799 | 0.682 | 0.66 | 0.533 | 0.543 | 0.47 | 0.464 | 0.481 | 0.713 | 0.751 | 0.631 | 0.701 | 0.666 | 0.521 | 0.548 | 0.515 | 0.459 | 0.508 |
| NCI-H2347 | 0.474 | 0.405 | 0.501 | 0.318 | 0.315 | 0.613 | 0.478 | 0.658 | 0.648 | 0.404 | 0.593 | 0.553 | 0.581 | 0.527 | 0.521 | 0.361 | 0.388 | 0.398 | 0.381 | 0.361 |
| NCI-H1975 | 0.435 | 0.403 | 0.413 | 0.347 | 0.274 | 0.347 | 0.293 | 0.255 | 0.228 | 0.259 | 0.425 | 0.419 | 0.37 | 0.317 | 0.317 | 0.615 | 0.536 | 0.524 | 0.39 | 0.35 |
| UMC-11 | 0.332 | 0.311 | 0.303 | 0.251 | 0.238 | 0.676 | 0.511 | 0.495 | 0.445 | 0.31 | 0.569 | 0.53 | 0.524 | 0.322 | 0.405 | 0.342 | 0.306 | 0.295 | 0.273 | 0.262 |
| ABC-1 | 0.241 |  | 0.264 | 0.242 | 0.231 | 0.808 |  | 0.623 | 0.583 | 0.492 | 1.33 | 1.03 | 1.13 | 0.738 | 0.706 | 0.733 | 0.689 | 0.694 | 0.639 | 0.604 |
| A-427 | 0.31 | 0.272 | 0.319 | 0.227 | 0.226 | 0.675 | 0.511 | 0.673 | 0.677 | 0.373 | 0.621 | 0.548 | 0.574 | 0.478 | 0.449 | 0.527 | 0.535 | 0.477 | 0.448 | 0.466 |
| LCLC-97TM1 | 0.423 | 0.382 | 0.446 | 0.355 | 0.231 | 0.179 | 0.147 | 0.12 | 0.193 | 0.108 | 0.242 | 0.242 | 0.308 | 0.225 | 0.205 | 0.222 | 0.154 | 0.202 | 0.202 | 0.236 |
| HCC-15 | 0.407 | 0.392 | 0.368 | 0.338 | 0.223 | 0.629 | 0.547 | 0.556 | 0.426 | 0.224 | 0.496 | 0.523 | 0.48 | 0.263 | 0.238 | 0.694 | 0.653 | 0.566 | 0.417 | 0.405 |
| NCI-H647 | 0.499 | 0.353 | 0.469 | 0.262 | 0.114 | 0.403 | 0.416 | 0.364 | 0.406 | 0.167 | 0.453 | 0.305 | 0.261 | 0.185 | 0.186 | 0.406 | 0.288 | 0.297 | 0.159 | 0.138 |
| SW 1573 | 0.362 | 0.299 | 0.268 | 0.156 | 0.197 | 0.492 | 0.426 | 0.397 | 0.289 | 0.236 | 0.6 | 0.411 | 0.322 | 0.33 | 0.268 | 0.427 | 0.239 | 0.211 | 0.183 | 0.186 |
